# In article PMC2993763 (Journal of natural products, 2010):
# Where “and” joins values, the source holds several entries; their conditions need not be identical. Equal entries are not always repeated.
# Tests used:
# [1] = test system: HT-29 human colon cancer cell line; assay: Cytotoxicity assay; assay type: cell-based; conditions: HT-29 cells, three days incubation, SRB stain
# [2] = test system: P-388 lymphocytic leukemia; conditions: administered both ip and iv; cited from earlier work
# [3] = cited from earlier work
SMILES,"ED50, cytotoxicity HT-29 [1]",activity in the P-388 lymphocytic leukemia test system in vivo [2],activity in the in vivo hollow fiber assay [3]
"COC(=O)[C@H]1[C@@H](O)[C@@]2(O)c3c(OC)cc(O[C@@H]4O[C@@H]([C@@H](O)CO)CO[C@H]4OC)cc3O[C@@]2(c2ccc(OC)cc2)[C@@H]1c1ccccc1 [Compound 8, episilvestrol (5‴-epi-silvestrol)]",0.001 µM,–,–
"COC(=O)[C@H]1[C@@H](O)[C@@]2(O)c3c(OC)cc(O[C@@H]4O[C@@H]([C@H](O)CO)CO[C@H]4OC)cc3O[C@@]2(c2ccc(OC)cc2)[C@@H]1c1ccccc1 [Compound 7, silvestrol]",0.0007 µM,showed activity,active
"COC(=O)[C@H]1[C@@H](O)[C@@]2(O)c3c(OC)cc(O[C@@H]4O[C@@H]([C@H](O)CO)CO[C@@H]4OC)cc3O[C@@]2(c2ccc(OC)cc2)[C@@H]1c1ccccc1 [Compound 1, 2‴-epi-silvestrol]",2.3 µM and 2.29 µM,–,–
"COC(=O)[C@H]1[C@@H](O)[C@@]2(O)c3c(OC)cc(O[C@@H]4O[C@@H]([C@@H](O)CO)CO[C@@H]4OC)cc3O[C@@]2(c2ccc(OC)cc2)[C@@H]1c1ccccc1 [Compound 2, 2‴,5‴-diepi-silvestrol]",1.1 µM and 1.07 µM,–,–
